Results as given in ChEMBL document CHEMBL4196204, “Sulfonic Acid-Containing Flavonoids from the Roots of Phyllanthus acidus” (J Nat Prod, 2018).
Activity calls are given as the source filed them. The calls are words filed in the database; no cut-off is given here.

Assays:
MCF7 = assay: Antiproliferative activity against human MCF7 cells by MTT assay; type: functional, cell-based
HepG2 = assay: Antiproliferative activity against human HepG2 cells by MTT assay; type: functional, cell-based

COc1c(O)c2c(c(S(=O)(=O)O)c1O)OC(c1ccc(O)cc1)CC2=O (racemic)
Activity (MCF7): inactive | Activity (HepG2): inactive
